For this experiment, the target named is T1, recombinant human GR (Homo sapiens, UniProt P04150).
T1 construct: purchased Panvera/Invitrogen P2812 (kit P2893)
T1 sequence (P04150 1-777): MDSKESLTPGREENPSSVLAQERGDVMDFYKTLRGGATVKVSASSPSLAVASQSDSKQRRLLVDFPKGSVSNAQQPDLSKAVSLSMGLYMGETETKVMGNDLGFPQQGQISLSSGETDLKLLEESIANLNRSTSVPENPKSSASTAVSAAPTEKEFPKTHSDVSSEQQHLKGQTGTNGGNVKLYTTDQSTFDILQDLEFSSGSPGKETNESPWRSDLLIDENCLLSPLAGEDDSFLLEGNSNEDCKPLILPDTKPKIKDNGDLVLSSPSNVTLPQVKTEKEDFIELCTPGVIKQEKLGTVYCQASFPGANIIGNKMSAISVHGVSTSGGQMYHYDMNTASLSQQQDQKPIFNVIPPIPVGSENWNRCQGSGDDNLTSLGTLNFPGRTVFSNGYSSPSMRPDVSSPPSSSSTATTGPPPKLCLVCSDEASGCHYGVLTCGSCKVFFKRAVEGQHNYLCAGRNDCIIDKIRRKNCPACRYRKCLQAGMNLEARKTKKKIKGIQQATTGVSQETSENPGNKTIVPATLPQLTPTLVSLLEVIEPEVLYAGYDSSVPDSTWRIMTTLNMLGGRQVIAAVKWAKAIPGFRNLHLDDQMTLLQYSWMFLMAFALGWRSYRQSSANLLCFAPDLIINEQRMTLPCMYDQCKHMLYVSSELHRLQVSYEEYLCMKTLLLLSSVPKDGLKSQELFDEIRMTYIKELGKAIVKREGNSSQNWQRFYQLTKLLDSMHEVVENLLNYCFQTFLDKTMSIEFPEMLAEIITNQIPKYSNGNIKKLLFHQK
In words: Human Glucocorticoid Receptor (GR) Assay, fluorescence polarization. It is filed as binding. The settings on record: GS Red tracer, incubated 2 h at r.t., XLfit model 205, read-out: GRhuFL_FP_v2 Mean IC50. The gist of the method: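 After 2 h dark incubation at r.t., polarization reported displacement of the GS Red tracer from recombinant GR, in buffer with phosphate, molybdate, EDTA, DTT and Stabilizing Peptide. Controls: dexamethasone (100%) and DMSO (0%).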
A general note: In fluorescence polarisation assays a small probe gives low polarisation when free and higher when bound to something large.

Broadly, the IC50 is the point on the concentration scale where inhibition reaches its midpoint.

For `CCc1ccc([C@@H](Oc2ccc3c(cnn3-c3ccc(F)cc3)c2)[C@H](C)NC(=O)C(F)(F)F)cc1` [Example 46, N-[(1R,2S)-1-(4-ethylphenyl)-1-[1-(4-fluorophenyl)indazol-5-yl]oxy-propan-2-yl]-2,2,2-trifluoro-acetamide], the IC50 is 3.4 nM.
For the compound `Cc1cnc(C(=O)N[C@@H](C)[C@H](Oc2ccc3c(cnn3-c3ccc(F)cc3)c2)c2ccc(C)c(F)c2)s1` [Example 194, N-[(1R,2S)-1-(3-fluoro-4-methyl-phenyl)-1-[1-(4-fluorophenyl)indazol-5-yl]oxy-propan-2-yl]-5-methyl-1,3-thiazole-2-carboxamide], the IC50 is 3.9 nM.
The figure for `COCC(=O)N[C@@H](COC)[C@H](Oc1ccc2c(cnn2-c2ccc(F)cc2)c1)c1cccc(F)c1` [Example 111, N-[(1)-(2R)-(3-Fluorophenyl)-2-{[1-(4-fluorophenyl)-1H-indazole-5-yl]oxy}-1-(methoxymethyl)ethyl]-2-methoxyacetamide] is 15 nM; for `C[C@H](NC(=O)C(C)(C)O)[C@H](Oc1ccc2c(cnn2-c2ccc(F)cc2)c1)c1ccccc1` [Example 5, N-[(1R,2S)-1-[1-(4-fluorophenyl)indazol-5-yl]oxy-1-phenyl-propan-2-yl]-2-hydroxy-2-methyl-propanamide] it is 2.1 nM; for `COc1ccccc1[C@@H](Oc1ccc2c(cnn2-c2ccc(F)cc2)c1)[C@H](C)NC(=O)C1(C)CC1` [Example 227, N-[(1R,2S)-1-[1-(4-fluorophenyl)indazol-5-yl]oxy-1-(2-methoxyphenyl)propan-2-yl]-1-methyl-cyclopropane-1-carboxamide] it is 3.1 nM.
For the compound `C[C@H](NC(=O)CO)[C@H](Oc1ccc2c(cnn2-c2ccc(F)cc2)c1)c1ccc2ccccc2c1` [Example 21, N-[(1R,2S)-1-[1-(4-fluorophenyl)indazol-5-yl]oxy-1-naphthalen-2-yl-propan-2-yl]-2-hydroxy-acetamide], the IC50 is 3.2 nM.
The result for `COc1cccc([C@@H](Oc2ccc3c(cnn3-c3ccc(F)cc3)c2)[C@H](C)NC(=O)C(=O)OC(C)C)c1` [Example 77, Propan-2-yl [(1R,2S)-1-[1-(4-fluorophenyl)indazol-5-yl]oxy-1-(3-methoxyphenyl)propan-2-yl]carbamoylformate] reads 2.6 nM; that for `COCC(=O)N[C@@H](C)[C@H](Oc1ccc2c(cnn2-c2ccc(F)cc2)c1)c1cccc(OC)c1` [Example 54, N-[(1R,2S)-1-[1-(4-fluorophenyl)indazol-5-yl]oxy-1-(3-methoxyphenyl)propan-2-yl]-2-methoxy-acetamide], 2.9 nM; that for `CC(C)(C)C(=O)NC(C(Oc1ccc2c(cnn2-c2ccc(F)cc2)c1)c1ccccc1)C(F)(F)F` (single isomer, unassigned) [Example 147D2E2, N-(1,1,1-trifluoro-3-(1-(4-fluorophenyl)-1H-indazol-5-yloxy)-3-phenylpropan-2-yl)pivalamide], 12 nM.
The figure for `C[C@H](NC(=O)C(C)(C)F)[C@H](Oc1ccc2c(cnn2-c2ccc(F)cc2)c1)c1ccc(F)c(F)c1` [Example 241, N-[(1R,2S)-1-(3,4-difluorophenyl)-1-[1-(4-fluorophenyl)indazol-5-yl]oxy-propan-2-yl]-2-fluoro-2-methyl-propanamide] is 4.9 nM.
On to `C[C@H](NC(=O)C(F)(F)F)[C@H](Oc1ccc2c(cnn2C2CCCC2)c1)c1ccccc1` [Example 130, N-[(1R,2S)-1-(1-cyclopentylindazol-5-yl)oxy-1-phenyl-propan-2-yl]-2,2,2-trifluoro-acetamide], for which the IC50 is 2.5 nM.
`COc1cccc([C@@H](Oc2ccc3c(cnn3-c3ccc(F)cc3)c2)[C@H](C)NC(=O)c2cc(C)c(C)s2)c1` [Example 291, N-[(1R,2S)-1-[1-(4-fluorophenyl)indazol-5-yl]oxy-1-(3-methoxyphenyl)propan-2-yl]-4,5-dimethyl-thiophene-2-carboxamide]: the IC50 was 6.4 nM.
The figure for `CCc1ccc([C@@H](Oc2ccc3c(cnn3-c3ccc(F)cc3)c2)[C@H](C)NC(=O)CF)cc1` [Example 50, N-[(1R,2S)-1-(4-ethylphenyl)-1-[1-(4-fluorophenyl)indazol-5-yl]oxy-propan-2-yl]-2-fluoro-acetamide] is 2.9 nM; for `CCSCc1ccc([C@@H](Oc2ccc3c(cnn3-c3ccc(F)cc3)c2)[C@H](C)NC(=O)C(F)(F)F)cc1` [Example 25, N-[(1R,2S)-1-[4-(ethylsulfanylmethyl)phenyl]-1-[1-(4-fluorophenyl)indazol-5-yl]oxy-propan-2-yl]-2,2,2-trifluoro-acetamide] it is 11 nM; for `CCOC(=O)C(=O)N[C@@H](C)[C@H](Oc1ccc2c(cnn2-c2ccc(F)cc2)c1)c1cccc(OC)c1` [Example 78, Ethyl [(1R,2S)-1-[1-(4-fluorophenyl)indazol-5-yl]oxy-1-(3-methoxyphenyl)propan-2-yl]carbamoylformate] it is 3.2 nM.
The result for `COc1cccc([C@@H](Oc2ccc3c(cnn3-c3ccc(F)cc3)c2)[C@H](C)NC(=O)c2ccco2)c1` [Example 86, N-((1R,2S)-1-(1-(4-fluorophenyl)-1H-indazol-5-yloxy)-1-(3-methoxyphenyl)propan-2-yl)furan-2-carboxamide] reads 3.8 nM; that for `C[C@H](NC(=O)C(F)(F)F)[C@H](Oc1ccc2c(cnn2-c2ccc(F)cc2)c1)c1cc(F)cc(Cl)c1` [Example 161, N-[(1R,2S)-1-(3-chloro-5-fluoro-phenyl)-1-[1-(4-fluorophenyl)indazol-5-yl]oxy-propan-2-yl]-2,2,2-trifluoro-acetamide], 8.5 nM.
The figure for `COCC(=O)N[C@@H](C)[C@H](Oc1ccc2c(cnn2-c2ccc(F)cc2)c1)c1ccc(C)cc1C` [Example 261, N-[(1R,2S)-1-(2,4-dimethylphenyl)-1-[1-(4-fluorophenyl)indazol-5-yl]oxy-propan-2-yl]-2-methoxy-acetamide] is 5.7 nM; for `COc1cccc([C@@H](Oc2ccc3c(cnn3-c3ccc(F)cc3)c2)[C@H](C)NC(=O)c2ccsc2)c1` [Example 134, N-[(1R,2S)-1-[1-(4-fluorophenyl)indazol-5-yl]oxy-1-(3-methoxyphenyl)propan-2-yl]thiophene-3-carboxamide] it is 3.6 nM.
Regarding `CC(C)C(=O)N[C@@H](C)[C@H](Oc1ccc2c(cnn2-c2ccc(F)cc2)c1)c1ccccc1` [Example 37, N-[(1R,2S)-1-[1-(4-fluorophenyl)indazol-5-yl]oxy-1-phenyl-propan-2-yl]-2-methyl-propanamide], the IC50 worked out at 2.4 nM.
With `COC(=O)N[C@@H](C)[C@H](Oc1ccc2c(cnn2-c2ccc(F)cc2)c1)c1ccccc1` [Example 4, Methyl ((1S,2R)-2-{[1-(4-fluorophenyl)-1H-indazol-5-yl]oxy}-1-methyl-2-phenylethyl)carbamate], the IC50 was found to be 5.9 nM.
The result for `CC(C)n1ncc2cc(O[C@H](c3ccccc3)[C@H](C)NC(=O)C(F)(F)F)ccc21` [Example 129, 2,2,2-Trifluoro-N-[(1R,2S)-1-phenyl-1-(1-propan-2-ylindazol-5-yl)oxy-propan-2-yl]acetamide] reads 11 nM; that for `C[C@H](NC(=O)C(C)(C)C)[C@H](Oc1ccc2c(cnn2-c2ccc(F)cc2)c1)c1ccc2c(c1)OCO2` [Example 189, N-[(1R,2S)-1-benzo[1,3]dioxol-5-yl-1-[1-(4-fluorophenyl)indazol-5-yl]oxy-propan-2-yl]-2,2-dimethyl-propanamide], 7.8 nM.

For the origin of these results see patent US8143290B2, “Chemical compounds 572” (AstraZeneca AB, priority 2006, dated 2012).
